{"source": "paper PMC11524579", "about": "“PRR adjuvants restrain high stability peptides presentation on APCs” (eLife, 2024)", "key": {"A20 cells [1]": {"tested_on": "A20 cells", "assay": "MHC-II immunopeptidome (LC-MS/MS) of adjuvant-treated APCs", "assay_type": "cell-based, Mus musculus", "protocol": "A20 cells were cultured in T75 cell culture flasks (Corning, NY, USA). The expanded cells were pulsed with H. pylori lysates in combination with adjuvants MPLA, MDP, or CpG for 12 hr, collected, washed twice with sterile PBS, and divided into two fractions. One fraction, approximately 10^7 cells, was used for whole-proteome analysis. The remaining 10^8 cells were lysed in cold lysis buffer (1.0% w/v CHAPS, Protease Inhibitor tablet, and PMSF) for MHC-II complex immunoprecipitation. The cell lysates were centrifuged at 18,000×g for 20 min. The supernatant (containing the MHC–peptide complexes) was transferred into a new 1.5 mL microcentrifuge tube (Corning) containing a mixture of Sepharose CNBr-activated beads (Cytivia, Utah, USA) and 2 mg Anti-Mouse H2-IA^d/IE^d (M5/114) antibody (BioXcell, NH, USA). The immune complexes were captured on the beads by incubating on a rotor at 4℃ for 18 hr. Sequentially, the immune complexes were transferred to a polypropylene column (Bio-Rad Laboratories, Hercules, CA, USA) and washed with 10 mL buffer A (150 mM NaCl, 20 mM Tris, pH 8.0), 10 mL buffer B (400 mM NaCl, 20 mM Tris, pH 8.0), 10 mL buffer A, and 10 mL buffer C (Tris 20 mM, pH 8.0). The MHC-II–peptide complexes were eluted with 300 µL 10% glacial acetic acid (Macklin, Shanghai, China) three times. The eluate was stored at −80℃ until mass spectrometry analysis was performed. […]"}, "A20 cells [2]": {"tested_on": "A20 cells", "assay": "Whole-proteome LC-MS/MS of adjuvant-treated APCs, bacterial protein abundance", "assay_type": "cell-based, Mus musculus", "conditions": "A20 cells 12 hr post-adjuvant stimulation with H. pylori antigens", "protocol": "A20 cells were cultured in T75 cell culture flasks (Corning, NY, USA). The expanded cells were pulsed with H. pylori lysates in combination with adjuvants MPLA, MDP, or CpG for 12 hr, collected, washed twice with sterile PBS, and divided into two fractions. One fraction, approximately 10^7 cells, was used for whole-proteome analysis. The remaining 10^8 cells were lysed in cold lysis buffer (1.0% w/v CHAPS, Protease Inhibitor tablet, and PMSF) for MHC-II complex immunoprecipitation. The cell lysates were centrifuged at 18,000×g for 20 min. The supernatant (containing the MHC–peptide complexes) was transferred into a new 1.5 mL microcentrifuge tube (Corning) containing a mixture of Sepharose CNBr-activated beads (Cytivia, Utah, USA) and 2 mg Anti-Mouse H2-IA^d/IE^d (M5/114) antibody (BioXcell, NH, USA). The immune complexes were captured on the beads by incubating on a rotor at 4℃ for 18 hr. Sequentially, the immune complexes were transferred to a polypropylene column (Bio-Rad Laboratories, Hercules, CA, USA) and washed with 10 mL buffer A (150 mM NaCl, 20 mM Tris, pH 8.0), 10 mL buffer B (400 mM NaCl, 20 mM Tris, pH 8.0), 10 mL buffer A, and 10 mL buffer C (Tris 20 mM, pH 8.0). The MHC-II–peptide complexes were eluted with 300 µL 10% glacial acetic acid (Macklin, Shanghai, China) three times. The eluate was stored at −80℃ until mass spectrometry analysis was performed.\nProtein aliquots were mixed with 200 μL 8 M urea in Nanosep Centrifugal Devices (PALL) and centrifuged at 12,000×g at 20℃ for 20 min. All the centrifugation steps were performed under the same conditions, allowing for maximal concentration. Then, 200 μL 8 M urea solution with 10 mM DTT was added, and the reduction reaction was performed for 2 hr at 37°C. The solution was removed by centrifugation and 200 μL 8 M urea solution with 50 mM iodoacetamide (IAA) was added. The samples were incubated in the dark for 15 min at room temperature. The ultra-fraction tube was washed with 200 μL 8 M urea three times and 200 μL 25 mM ammonium bicarbonate three times by centrifugation at 12,000×g for 20 min at room temperature. […]"}, "splenocytes": {"tested_on": "splenocytes", "assay": "IFN-γ ELISpot of splenocytes from peptide-pool immunized mice", "assay_type": "in vivo", "conditions": "five BALB/c mice immunized with pool of 10 peptides (50 μg each) in CFA; for IFN-γ ELISpot response, day 10 (effective phase): threshold 3x median of OVA peptide", "protocol": "Six- to eight-week-old SPF female BALB/c mice were immunized subcutaneously with a pool of synthetic peptides (50 μg for each peptide) emulsified in Complete Freunds Adjuvant (Sigma-Aldrich). At 10 and 28 days post-vaccination, the mice were euthanized, and the spleens were removed for ELISpot assays.\nSplenocytes (500,000 cells/well) were treated with red blood cell lysis buffer and stimulated with 5 μM peptides in triplicate in ELISpot plates (Dakewe Biotech, Shenzhen, China) for 18 hr. IFN-γ secretion was detected using capture and detection antibodies and imaged using an ELISpot & FluoroSpot Reader (Mabtech, Stockholm, Sweden). OVA peptide323–339 (ISQAVHAAHAEINEAGR) and non-stimulated wells were used as negative controls. PMA (BioGems, NJ, USA) was used as a positive control."}, "CD4+ T-cells [3]": {"tested_on": "CD4+ T-cells", "assay": "IFN-γ ICS of in vitro expanded peptide-specific CD4+ T-cells, peptide pool and titrated peptides", "assay_type": "cell-based, BALB/c mice", "conditions": "titrated peptides, response at 50 μM taken as 100%, n=3, ICS flow cytometry; compared with ureA #2 and ureA #3", "protocol": "(§1) Six- to eight-week-old SPF female BALB/c mice were immunized subcutaneously with 100 μg recombinant H pylori UreB (rUreB, purity >95%) emulsified in adjuvants CpG (20 μg/ mouse), MDP (30 μg/ mouse), and MPLA (10 μg/ mouse). Mice immunized with the same antigen without adjuvants were used as controls. Ten days later, the mice were euthanized with Carbon Dioxide (CO₂), and their spleens were harvested. Antigen-specific T-cells were expanded in vitro as described previously ([Li et al., 2015]). Briefly, the lymphocytes from spleens were isolated using a Ficoll–Hypaque (Dakewe, Shanghai, China) gradient, pulsed with 0.5 μM rUreB protein in the presence of 5 U/mL rmIL-2 (PeproTech, NJ, USA), and in vitro cultured in ‘RF-10’ medium consisting of RPMI 1640 (Gibco, CA, USA) supplemented with 10% fetal calf serum (Gibco), 1% L-glutamine, 1x 2-mercaptoethanol (Gibco), and 100 U/mL penicillin/ streptomycin. On day 5, the live cells were collected using a Ficoll–Hypaque gradient and cultured in a complete medium containing 20 U/mL rmIL-2. Half the medium was replaced when required.\nBulk-cultured T-cells were stimulated with 5 μM peptides for 5 hr in the presence of brefeldin A (BioLegend). The cells were collected and stained with specific antibodies against surface markers. […] The data were analyzed using FlowJo software (Tree Star, CA, USA). […]"}, "MHC-II H2-IA allele": {"tested_on": "MHC-II H2-IA allele", "assay": "MHC-II competition-binding assay in vitro", "conditions": "competition with 0.1 μM biotin-labeled control peptide, 50 nM purified MHC-II, 37 °C 24 hr, europium fluorescence; eight concentrations, three independent experiments"}, "CD4+ T-cells [4]": {"tested_on": "CD4+ T-cells", "assay": "IFN-γ ICS screen of UreB overlapping 18mer peptides on T-cells from adjuvant-vaccinated mice", "assay_type": "cell-based, BALB/c mice", "conditions": "spleens day 10, expanded in vitro, 5 μM peptide 5 hr, ICS flow cytometry; for IFN-γ response of CD4+ T-cells to UreB 18mer peptides, CpG group: T-cells from mice vaccinated with UreB + CpG; for IFN-γ response of CD4+ T-cells to UreB 18mer peptides, CpG group / IFN-γ response of CD4+ T-cells to UreB 18mer peptides, MPLA group / IFN-γ response of CD4+ T-cells to UreB 18mer peptides, MDP group: representative of three independent experiments; for IFN-γ response of CD4+ T-cells to UreB 18mer peptides, MPLA group: T-cells from mice vaccinated with UreB + MPLA; for IFN-γ response of CD4+ T-cells to UreB 18mer peptides, MDP group: T-cells from mice vaccinated with UreB + MDP", "protocol": "as §1\nBulk-cultured T-cells were stimulated with 5 μM peptides for 5 hr in the presence of brefeldin A (BioLegend). The cells were collected and stained with specific antibodies against surface markers. Intracellular cytokine staining was performed after fixation. Cells were acquired using an LSRFortessa Flow Cytometer (BD Biosciences) or a Navios Flow Cytometer (Beckman Coulter, FL, USA). The data were analyzed using FlowJo software (Tree Star, CA, USA)."}}, "data": [{"compound": "CC(=O)N[C@@H]1[C@@H](O[C@H](C)C(=O)N[C@@H](C)C(=O)N[C@H](CCC(=O)O)C(N)=O)[C@H](O)[C@@H](CO)O[C@H]1O", "note": "[MDP]", "values": [{"measurement": "Number of MHC peptides identified", "setting": "A20 cells [1]; A20 cells treated with adjuvant + H. pylori antigens 12 hr, 10^8 cells, MHC-II IP, LC-MS/MS, mean of n=3 biological replicates", "result": 3257}, {"measurement": "Effect of adjuvant on peptide repertoires presented by APCs", "setting": "A20 cells [1]; A20 cells, H. pylori antigens + adjuvant 12 hr, immunopeptidome", "result": "not"}, {"measurement": "% H. pylori: percentage of bacterial protein abundances in the total whole proteome", "setting": "A20 cells [2]; sample (replicate) 1", "result": 0.95, "unit": "%"}, {"measurement": "% H. pylori: percentage of bacterial protein abundances in the total whole proteome", "setting": "A20 cells [2]; sample (replicate) 2", "result": 1.04, "unit": "%"}, {"measurement": "% H. pylori: percentage of bacterial protein abundances in the total whole proteome", "setting": "A20 cells [2]; sample (replicate) 3", "result": 1.09, "unit": "%"}]}, {"compound": "AFIDAEHALDVHYAKR [recA #23]", "values": [{"measurement": "IFN-γ ELISpot response, day 28 (memory phase)", "setting": "splenocytes", "result": "not weaker than that of the other peptides"}, {"measurement": "IFN-γ ELISpot response, day 10 (effective phase)", "setting": "splenocytes", "result": "positive responses"}, {"measurement": "IFN-γ response of expanded CD4+ T-cells to titrated peptide", "setting": "CD4+ T-cells [3]", "result": "more robust CD4^+ T-cell responses at lower peptide concentrations"}, {"measurement": "Binding stability for MHC-II", "setting": "MHC-II H2-IA allele", "result": "low-stability"}]}, {"compound": "ASMIHEVGIEAMFPDGTK [ureA #2]", "values": [{"measurement": "IFN-γ ELISpot response, day 10 (effective phase)", "setting": "splenocytes", "result": "positive responses"}, {"measurement": "Binding stability for MHC-II", "setting": "MHC-II H2-IA allele", "result": "highly stable"}]}, {"compound": "KMLELANQIKTNLSAIPQ [hopZ #53]", "values": [{"measurement": "IFN-γ ELISpot response, day 10 (effective phase)", "setting": "splenocytes", "result": "positive responses"}, {"measurement": "Binding stability for MHC-II", "setting": "MHC-II H2-IA allele", "result": "highly stable"}]}, {"compound": "U313–330: UreB overlapping 18mer peptide (EHMDMLMVCHHLDKSIKE; UniProt P69996 313-330, looked up, fragment)", "values": [{"measurement": "IFN-γ response of CD4+ T-cells to UreB 18mer peptides, CpG group", "setting": "CD4+ T-cells [4]", "result": "dominant response"}, {"measurement": "IFN-γ response of CD4+ T-cells to UreB 18mer peptides, MPLA group", "setting": "CD4+ T-cells [4]", "result": "primarily recognized"}]}, {"compound": "U403–426: UreB region covered by overlapping 18mer peptides (KRYLSKYTINPAIAHGISEYVGSV; UniProt P69996 403-426, looked up, fragment)", "values": [{"measurement": "IFN-γ response of CD4+ T-cells to UreB 18mer peptides, CpG group", "setting": "CD4+ T-cells [4]", "result": "dominant response"}]}, {"compound": "U409–426: UreB overlapping 18mer peptide (YTINPAIAHGISEYVGSV; UniProt P69996 409-426, looked up, fragment)", "values": [{"measurement": "IFN-γ response of CD4+ T-cells to UreB 18mer peptides, MDP group", "setting": "CD4+ T-cells [4]", "result": "dominant response"}]}, {"compound": "U481–498: UreB overlapping 18mer peptide (HHGKAKYDANITFVSQAA; UniProt P69996 481-498, looked up, fragment)", "values": [{"measurement": "IFN-γ response of CD4+ T-cells to UreB 18mer peptides, MDP group", "setting": "CD4+ T-cells [4]", "result": "dominant response"}]}, {"compound": "U481–U504: UreB dominant region covered by overlapping 18mer peptides (HHGKAKYDANITFVSQAAYDKGIK; UniProt P69996 481-504, looked up, fragment)", "values": [{"measurement": "IFN-γ response of CD4+ T-cells to UreB 18mer peptides, no-adjuvant group", "setting": "CD4+ T-cells [4]; T-cells from mice vaccinated with UreB without adjuvant", "result": "dominant region"}]}, {"compound": "U505–522: UreB overlapping 18mer peptide (EELGLERQVLPVKNCRNI; UniProt P69996 505-522, looked up, fragment)", "values": [{"measurement": "IFN-γ response of CD4+ T-cells to UreB 18mer peptides, MPLA group", "setting": "CD4+ T-cells [4]", "result": "primarily recognized"}]}, {"compound": "YVEAVALISAHIMEEAR [ureA #3]", "values": [{"measurement": "IFN-γ ELISpot response, day 10 (effective phase)", "setting": "splenocytes", "result": "positive responses"}, {"measurement": "Binding stability for MHC-II", "setting": "MHC-II H2-IA allele", "result": "highly stable"}]}]}
